Test results: publication PMC8448819, “The Arabidopsis MIK2 receptor elicits immunity by sensing a conserved signature from phytocytokines and microbes” (Nature Communications, 2021)

What was measured:
mik2 mutant seedlings = assay: ROS assay (luminol), mik2 mutants; assay type: in vivo, Arabidopsis thaliana; settings: mik2 mutants, 100 nM SCOOPs or 1 µM FocSCOOPL
Method: (§1) ROS burst was determined by a luminol-based assay. […] Then, ddH2O was replaced by 200 µL of reaction solution containing 50 µM of luminol, and 10 µg/mL of horseradish peroxidase (Sigma-Aldrich) supplemented with or without 100 nM or 1 μM peptide. Luminescence was measured immediately after adding the solution with a luminometer (Glomax 20/20n, Promega) with a one-second interval for 15 min. The total values of ROS production were indicated as means of the relative light units (RLUs).

[1] = system: bak1-4 and bak1-5/serk4 mutant seedlings; assay: ROS assay (luminol), coreceptor mutants; assay type: in vivo, Arabidopsis thaliana
Method: as §1

[2] = system: bik1/pbl1 mutant seedlings; assay: ROS assay (luminol), bik1/pbl1; assay type: in vivo, Arabidopsis thaliana; settings: bik1/pbl1, 100 nM SCOOP12 or 1 µM FocSCOOPL
Method: as §1

rbohD mutant seedlings = assay: ROS assay (luminol), rbohD; assay type: in vivo, Arabidopsis thaliana
Method: as §1

p35S::Aequorin seedlings = assay type: in vivo, Arabidopsis thaliana; settings: in vivo
[3] = system: MPK3, MPK4 and MPK6 phosphorylation, mik2-1 seedlings; assay: MAPK assay (α-pERK1/2 immunoblot), mik2-1; assay type: in vivo, Arabidopsis thaliana; design: dose or concentration left out as unconfirmed; settings: mik2-1, α-pERK1/2 immunoblot
MIK2-BAK1 association = assay: Co-immunoprecipitation MIK2-BAK1; assay type: cell-based, Arabidopsis thaliana; settings: protoplasts, MIK2-HA and BAK1-FLAG, 15 min, co-IP
Method: For co-IP assays in protoplasts, protoplasts were co-transfected with pHBT-35S::MIK2-HA and pHBT-35S::BAK1-FALG or pHBT-35S::SERK4-FLAG at 50 μg DNA for 500 μL protoplasts at the density of 2 × 10^5/mL for each sample and were incubated for 12 h. After treatment with 1 µM SCOOP peptides for 15 min, samples were collected by centrifugation at 200 × g for 2 min and lysed in 300 μL IP buffer (20 mM Tris-HCl, pH 7.5, 100 mM NaCl, 1 mM EDTA, 2 mM DTT, 10% [v/v] Glycerol, 0.5% [v/v] Triton X-100 and protease inhibitor cocktail from Sigma) by vortexing. After centrifugation at 10,000 × g for 10 min at 4 °C, 30 μL of supernatant was collected for input controls. The remaining supernatant was pre-incubated with protein-G-agarose beads at 4 °C for 1 h with gentle shaking at […] on a rocker. IP was carried out with α-FLAG agarose for 3 h at 4 °C. Beads were collected by 500 × g centrifugation for 2 min and washed three times with washing buffer (20 mM Tris-HCl, pH 7.5, 100 mM NaCl, 1 mM EDTA, 0.1% [v/v] Triton X-100) and once with 50 mM Tris-HCl, pH 7.5. Immunoprecipitated proteins and input proteins were analyzed by immunoblotting with α-HA (1:3000; Roche, Cat # 12013819001) or α-FLAG antibodies (1:3000; Sigma-Aldrich, Cat # A8592).
For co-IP assays in transgenic seedlings, leaves of 4-week-old pMIK2::MIK2-GFP transgenic plants were hand-inoculated with 1 μM SCOOP10^B or SCOOP12 and were treated for 30 min, followed by total protein isolation with extraction buffer (50 mM Tris-HCl, pH 7.5, 150 mM NaCl, 1% [v/v] NP-40 and 1:200 protease inhibitor cocktail from Sigma). Co-IP was carried out the same as for co-IP with protoplasts except that GFP-Trap agarose beads (Chromotek) were used instead. Immunoprecipitated proteins and input proteins were analyzed by immunoblotting with α-GFP (1:3500; Roche, Cat # 11814460001) or α-BAK1 antibodies (1:2000)[64].

[4] = system: Arabidopsis WT (Col-0) seedlings; assay type: in vivo, Arabidopsis thaliana; settings: Supplementary Fig. 5d, e
MIK2^ECD [5] = biological target: T1, MIK2^ECD (Arabidopsis thaliana, UniProt Q8VZG8); assay: Isothermal titration calorimetry (ITC); assay type: binding; settings: 25 °C, pH 7.0; 600 μM peptide into 30 μM MIK2^ECD
T1 construct: MIK2^ECD (residues 1–707) and BAK1^ECD (residues 1–220) were amplified by PCR from Col-0 cDNA; 6xHIS (C); made in house; host or cells: High Five insect cells (Bac-to-Bac baculovirus system)
T1 sequence (Q8VZG8 44-707): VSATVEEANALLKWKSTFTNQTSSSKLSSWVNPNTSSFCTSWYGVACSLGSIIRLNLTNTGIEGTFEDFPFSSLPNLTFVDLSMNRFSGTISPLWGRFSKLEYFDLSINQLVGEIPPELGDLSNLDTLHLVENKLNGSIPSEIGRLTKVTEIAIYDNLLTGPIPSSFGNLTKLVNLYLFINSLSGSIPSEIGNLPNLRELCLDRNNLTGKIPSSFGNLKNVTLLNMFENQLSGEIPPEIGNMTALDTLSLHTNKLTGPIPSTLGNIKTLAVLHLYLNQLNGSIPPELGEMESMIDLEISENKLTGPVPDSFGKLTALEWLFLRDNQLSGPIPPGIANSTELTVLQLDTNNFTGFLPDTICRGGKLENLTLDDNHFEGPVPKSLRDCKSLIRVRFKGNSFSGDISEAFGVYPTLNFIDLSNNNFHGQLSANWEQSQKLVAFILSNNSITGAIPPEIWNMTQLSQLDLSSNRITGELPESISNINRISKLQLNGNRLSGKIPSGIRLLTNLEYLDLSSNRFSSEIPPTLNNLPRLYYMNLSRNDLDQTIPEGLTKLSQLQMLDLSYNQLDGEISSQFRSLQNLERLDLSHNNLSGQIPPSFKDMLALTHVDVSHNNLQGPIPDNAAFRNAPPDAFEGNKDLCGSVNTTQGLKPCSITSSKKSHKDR

MIK2^ECD [6] = biological target: T1, MIK2^ECD; assay: Surface plasmon resonance (SPR); assay type: binding; settings: CM5 chip with immobilized MIK2^ECD
MIK2^ECD-BAK1^ECD = assay: Gel filtration of MIK2^ECD and BAK1^ECD; assay type: biochemical, Arabidopsis thaliana; settings: 0.1 mg peptide, 10 mM Bis-Tris pH 6.0, 100 mM NaCl, on ice 1 h
Method: The ECD domains of MIK2 (MIK2^ECD) and BAK1 (BAK1^ECD) fused with a 6 × HIS tag at the C-terminus were expressed using the Bac-to-Bac baculovirus expression system (Invitrogen) in High Five cells at 22 °C[25]. One liter of cells (1.8 × 10^6 cells per mL cultured in the medium from Expression Systems) was infected with 20 mL baculovirus and the media were harvested after 48 h of infection. The secreted MIK2^ECD-6 × HIS and BAK1^ECD-6 × HIS proteins were purified using Ni-NTA (Novagen) and size-exclusion chromatography (Hiload 200, GE Healthcare) in buffer containing 10 mM Bis-Tris pH 6.0 and 100 mM NaCl.
The purified MIK2^ECD proteins (0.5 mg for each) and BAK1^ECD proteins (0.2 mg for each) were incubated together with SCOOP12 or SCOOP12^SS/AA (0.1 mg for each) in a buffer containing 10 mM Bis-Tris, pH 6.0, 100 mM NaCl on ice for 1 h. Then, each of the mixtures was separated by gel filtration (Hiload 200, GE Healthcare) with a flow rate of 0.8 mL/min and an injection volume of […] at 4 °C, and the peak fractions were separated on SDS-PAGE followed by Coomassie blue (CBB) staining.

Sequence | ROS production in mik2 (mik2 mutant seedlings) | ROS production in bak1-4 ([1]; bak1-4, 100 nM SCOOP12) | ROS production in bak1-5/serk4 ([1]; bak1-5/serk4, 100 nM SCOOP12 or 1 µM FocSCOOPL) | ROS production in bik1/pbl1 [2] | ROS production in rbohD (rbohD mutant seedlings) | concentration inducing cytosolic Ca^2+ increase (p35S::Aequorin seedlings) [nM] | cytosolic Ca^2+ increase (p35S::Aequorin seedlings) | MAPK activation in mik2 [3] | MIK2-BAK1 association in protoplasts (MIK2-BAK1 association) | root growth inhibition of SCOOP12^SS/AA [4] | binding to MIK2^ECD, ITC (MIK2^ECD [5]) | binding to MIK2^ECD, SPR (MIK2^ECD [6]) | MIK2^ECD-BAK1^ECD dimerization (MIK2^ECD-BAK1^ECD)
MAQSWLKEESSSSHSERAGGR [FocSCOOPL, SCOOPL peptide from F. oxysporum f. sp. conglutinans strain Fo5176] | blocked in mik2 | blocked in mik2 (h), and in bak1-4 | compromised in the bak1-5/serk4 | compromised in the bak1-5/serk4, bik1/pbl1, and rbohD mutants | compromised in the bak1-5/serk4, bik1/pbl1, and rbohD mutants | 100 | triggers the cytosolic Ca^2+ increase | blocked in mik2-1 | induces MIK2-BAK1 association | – | – | – | –
MGSGASGPVRSAQASQAGGR [SCOOP12SS/AA, Alanine substitutions on two conserved serine residues in the SxS motif of SCOOP12] | – | – | – | – | – | – | – | – | – | abolished its activities to inhibit root growth through MIK2 | No binding was detected | nearly no binding | unable to induce the dimerization between MIK2^ECD and BAK1^ECD
